The source of these data is patent publication US20070010477A1, “Acyl homoserine lactones for inhibition of cell growth” (priority 2005, published 2007).

The test system of assay [1] is TS. Briefly: Western blot of TS protein down-regulation in H630 cells. Particulars: for down-regulation of TS protein (activity in words): 18-20 hours after addition. The assay is classed as cell-based, human. The method, then: Conventional techniques were used to propagate and maintain the H630 and H630-1 cell lines (see, for example Dolnick, et al. (2003) Cancer Biology & Therapy, 2: 364-369; Stephanie, et al. (2001) In: Proceedings AACR, New Orleans, La., pp. 493). For the investigation of effects on TS expression, cells were extracted at 18-20 hours after the addition of AHLs. For Western blot analysis, proteins were extracted and Western blotting was performed by standard methods using blots blocked with 5% nonfat dried milk dissolved in 10 mM Tris-HCl, pH 8.0, 150 mM sodium chloride, 0.05% Tween-20. The blots were probed using either monoclonal (4D5E11) or polyclonal antibodies to TS and then probed for α-tubulin (monoclonal antibody B-5-1-2, Sigma Biochemicals) to confirm equivalent protein loading. The same blots were successively probed with anti-rTSβ or anti-TS, and finally anti-tubulin. After probing for each protein, the blots were stripped by incubation in 8 M guanidine HCl. Detection of rTS protein was performed with mouse monoclonal antibody D3, prepared against recombinant rTSβ protein. All Western blots were detected using the horseradish peroxidase-based West Pico Dura chemiluminescent substrate (Pierce) and horseradish peroxidase-coupled F(ab′)2 fragments (Jackson ImmunoResearch Laboratories, West Grove, Pa.) as secondary antibodies
These AHLs were synthesized as described previously (Chhabra, et al., 1993, J. Antibiotics 46, 441-454). For studies with the H630-1 cell line, AHLs were either dissolved in RPMI 1640 (hydroxy-butanoyl-, butanoyl-, 3-(oxo)-hexanoyl-homoserine lactones) or in dimethyl sulfoxide (DMSO) (hexanoyl-homoserine lactones) and added to mid-log H630 cells in RPMI1640 containing 10 μM methionine and 1× ITS+ culture supplement (BD Bioscience) in place of serum at the indicated concentrations. […] After 18 hr, the medium was removed, the cells washed twice and protein extracted. The extracted proteins were separated on denaturing polyacrylamide gels and probed for rTS, TS and tubulin using specific antibodies.
This embodiment describes the down regulation of TS by AHLs as a ftmction of time. H630 cells were incubated with medium containing 3-oxo-hexanoyl-L-HSL (3 mM) as described for Example 5. The extraction and analysis was also carried out as described in Example 5 at the indicated times after drug addition.
(§1) A variety of AHLs with acyl-chains containing 4- to 12-carbons (C4-C12) and 3-hydroxy or 3-keto substituents were prepared as described in Example 1 and analyzed for their effect on TS protein expression by Western blotting. Although several of the shorter chain AHLs (C4-C6) can cause loss of TS, the required concentrations are in the mM range. […] The latter observation indicates 3-oxo-C12-HSL has effects on gene expression aside from the down-regulation of TS. In this regard, FIG. 8C provides a photographic representation of the effect of 23 μmol/L 3-oxo-C12-HSL on TS mRNA levels in H630 cells (20 hours of exposure) as evaluated by RT-PCR. […] Microarray analysis of H630 RNA was done using the Affymetrix (Santa Clara, Calif.) HGU133A GeneChip. Microarray data was analyzed using Genetraffic software (Stratagene, La Jolla, Calif.) with the Robust Multichip Analysis method (Lauren et al., (2003) IEEE Trans Nanobioscience; 2:163-70) for measuring probe intensity and scaling. Results for treated and untreated cells were analyzed for significant changes within each experiment (P<0.05) as well as for changes in pooled data from three separate experiments. RNA for RT-PCR or microarray analysis was prepared using an RNAeasy kit from Qiagen (Valencia, Calif.).
A general note: A western blot detects proteins with antibodies after separation by electrophoresis.

Another assay concerns tubulin. Briefly: Western blot of tubulin in H630 cells. In kind it is cell-based, human. To be noted: FIG. 8B. The method, then: Conventional techniques were used to propagate and maintain the H630 and H630-1 cell lines (see, for example Dolnick, et al. (2003) Cancer Biology & Therapy, 2: 364-369; Stephanie, et al. (2001) In: Proceedings AACR, New Orleans, La., pp. 493). For the investigation of effects on TS expression, cells were extracted at 18-20 hours after the addition of AHLs. For Western blot analysis, proteins were extracted and Western blotting was performed by standard methods using blots blocked with 5% nonfat dried milk dissolved in 10 mM Tris-HCl, pH 8.0, 150 mM sodium chloride, 0.05% Tween-20. […] All Western blots were detected using the horseradish peroxidase-based West Pico Dura chemiluminescent substrate (Pierce) and horseradish peroxidase-coupled F(ab′)2 fragments (Jackson ImmunoResearch Laboratories, West Grove, Pa.) as secondary antibodies
A variety of AHLs with acyl-chains containing 4- to 12-carbons (C4-C12) and 3-hydroxy or 3-keto substituents were prepared as described in Example 1 and analyzed for their effect on TS protein expression by Western blotting. […] In this regard, FIG. 8C provides a photographic representation of the effect of 23 μmol/L 3-oxo-C12-HSL on TS mRNA levels in H630 cells (20 hours of exposure) as evaluated by RT-PCR. […]

A further assay deals with TS mRNA. Briefly: RT-PCR of TS mRNA levels in H630 cells. In kind it is cell-based, human. To be noted: 23 μmol/L, 20 hours of exposure. The method, then: as §1, with “Calif.). […]” for “Calif.).”
Assay [2] deals with T1, TS (Homo sapiens, UniProt P04818).
T1 construct: effects of AHLs on TS and tubulin in H630 cells; endogenous in cells; host or cells: H630 human colon cancer cells
T1 sequence (P04818 whole entry): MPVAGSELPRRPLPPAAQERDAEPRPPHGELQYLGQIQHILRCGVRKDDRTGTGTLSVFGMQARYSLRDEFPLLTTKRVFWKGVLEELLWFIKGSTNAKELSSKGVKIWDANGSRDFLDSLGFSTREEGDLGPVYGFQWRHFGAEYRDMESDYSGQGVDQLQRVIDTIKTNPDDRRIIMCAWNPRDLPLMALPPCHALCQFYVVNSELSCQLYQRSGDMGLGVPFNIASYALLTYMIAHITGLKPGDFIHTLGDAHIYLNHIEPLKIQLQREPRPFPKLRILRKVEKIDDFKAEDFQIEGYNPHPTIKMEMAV
Put plainly: TS modulation assay (luciferase mRNA containing TS binding elements) in H630 cells. The assay is classed as cell-based. To be noted: H630 cells treated with IC50 concentration.

Assay [3] concerns H630 cells. Put plainly: Growth inhibition, cells counted 3 days after addition. In kind it is cell-based, human.
For assay [4], the system named is H630-1 cells. The description is as above. The assay is classed as cell-based, human.
Another assay deals with MCF-7 cells. Briefly: Growth inhibition. The assay is classed as cell-based, human. To be noted: MCF-7 breast cancer cell line.
Another assay deals with NCI-H460. Put plainly: Growth inhibition. In kind it is cell-based, human. Particulars: NCI-H460 lung cancer cell line.
Another assay deals with H630-1. Put plainly: Sulforhodamine-B growth inhibition assay, 5 days. In kind it is cell-based, human. To be noted: H630-1 cells, SRB staining. The protocol:
(§2) For growth inhibition assays described in this Example, H630, H630-1 and PC-3 (prostate cancer cells) cells were growth in the presence of HSL analog for 5 days. At the end of day 5, cells were fixed and stained with Sulforhodamine-B (SRB), a protein-staining dye. Excess SRB was removed leaving only dye bound to proteins from cells. Protein-bound SRB was then dissolved in base and quantified by spectrophotometric absorbance. In this assay, the amount of SRB bound to protein correlates with the number of cells present, allowing for the analysis of growth of treated versus untreated samples. The HSL analogs are administered at 10 concentrations, spanning a 5 log range.
(§3) The data points in the graphs of FIGS. 13A-13C represent % control growth at a given HSL analog concentration. IC50 values represent the concentration of HSL analog at which growth of the treated cells is inhibited by 50%. The structure of the tested compounds, designated by number, are as set forth in FIG. 13 from which it can be sent that the phenyl-HSL analogs tested range from C5 (compound 12) to C14 (compound 25). […] This effect decreases as the chain length reaches C14, as indicated by an increase in the IC50 values. […] Specifically, the C10 phenyl analog (compound 20) is equally as active as the 3-oxo-C12 HSL used as a positive control, despite having two fewer carbons in the alkyl chain.

The test system of a further assay is H630. Put plainly: Sulforhodamine-B growth inhibition assay, 5 days. In kind it is cell-based, human. To be noted: H630 cells, SRB staining. The protocol: as §2, §3
(In general: In SRB staining, fixed cells bind dye roughly in proportion to their protein.)

Assay [5] deals with PC-3 (prostate cancer cells). Put plainly: Sulforhodamine-B growth inhibition assay, 5 days. Particulars: PC-3 cells, SRB staining. In kind it is cell-based, human. The method, then: as §2, §3
The test system of assay [6] is H630 cells. Put plainly: Colony formation assay. Particulars: for enhancement of activity by 3-oxo-C12-HSL: colony formation, 23 μM 3-oxo-C12-HSL.
The test system of assay [7] is H630-1 cells. Briefly: Colony formation assay. The assay is classed as cell-based, human. To be noted: for enhancement of activity by 3-oxo-C12-HSL: colony formation, 8 μM 3-oxo-C12-HSL.

As to `CCCCCC(=O)NC1CCOC1=O` (racemic) [C6-HSL racemic mix, hexanoyl-homoserine lactone], in the assay with TS [1] (Western blot), the “down-regulation of TS protein (activity in words)” value is on record as “less active”.

Take `CCCCCC(=O)N[C@H]1CCOC1=O` (single isomer, unassigned) [(L)-isomer of C6-HSL, N-hexanoyl (L-)-homoserine lactone]: in the assay with TS [1] (Western blot), the “down-regulation of TS protein (activity in words)” value is reported as “active”.

Take `CCCC(=O)CC(=O)OCC` [3-(oxo)-ethylhexanoate, reference compound]: in the assay with TS [1] (Western blot), the “down-regulation of TS protein (activity in words)” value is “inactive”.

By IC50 is commonly meant the concentration that inhibits the measured activity by half. As to `CCCCCCCCCC(=O)CC(=O)N[C@H]1CCOC1=O` [3-oxo-C12-HSL, 3-oxo-C12 homoserine lactone], the “concentration needed to reduce the amount of TS” value with TS [1] (FIG. 8B) is 1 to 10 µM. The “lowest concentration causing down-regulation of TS” value in the assay with TS [1] (Western blot, FIG. 8B) is 10 µM. Moreover, the “effect on tubulin with increasing concentrations” value in the assay on tubulin is on record as “appears to decrease”. Besides, in the assay with TS mRNA, the “TS mRNA levels” value is “unaffected”. In addition, at TS [2], the “TS modulatory activity (luminescence)” value is on record as “no detectable TS modulatory activity”. Further, the concentration for half-maximal inhibition (IC50) in the assay with H630 cells [3] (3 days) came to 23 µM; in the assay with H630-1 cells [4], 8 µM; with MCF-7 cells, 16 µM; with NCI-H460, 35 µM; in the assay on H630-1, 12 µM; in the assay with H630 it was 35 µM. In addition, the IC50 in assay [5] was 10 µM; with H630 cells [6] (read-out: IC50 for inhibition of cell growth in a clonogenic assay, H630 cells, FIG. 9B solid circles), approximately 10 µM. The “growth inhibition, relative activity of stereoisomer” value in the assay with H630 cells [3] (FIG. 9B) was “more active than the racemic mixture”.

On to `CCCCCC(=O)NC1CCOC1=O` (stereo not shown) [C6-(D)—HSL], for which, in the assay with TS [1] (Western blot), the “down-regulation of TS protein (activity in words)” value was “inactive”.

In the case of `CCCC(=O)CC(=O)N[C@H]1CCOC1=O` [Compound 3-oxo-C6-HSL, 3-oxo-N-hexanoyl-(L-)homoserine lactone], in the assay on TS [1] (3 mM), the “time for which the TS reduction is maintained” value is “approximately 24 hours”. For the same compound, the “reduction of TS levels” value in the assay on TS [1] (3 mM, after 16 hours) was “approximately 50%”. Further, the “TS modulatory activity (luminescence)” value on TS [2] was “potent modulator of TS”.

With `CCCCCCCCCCCC(=O)N[C@H]1CCOC1=O` [Compound C12-HSL], the “down-regulation of TS protein” value in the assay on TS [1] (at concentrations as high as 100 μM) was “inactive”. In addition, in the assay with H630 cells [3] (FIG. 9B, read-out: IC50 growth inhibition), the IC50 came to 1000 µM.

As for `O=c1[nH]cc(F)c(=O)[nH]1` [FU, 5-fluorouracil], in the assay on H630-1 cells [7], the “enhancement of activity by 3-oxo-C12-HSL” value was “No enhancement”. Moreover, the half-maximal inhibitory concentration (IC50) in the assay with H630 cells [6] (Homo sapiens, NCI-H630, 336 h, read-out: apparent IC50 of FU, FU alone) stood at 1 µM.

Regarding `O=c1[nH]c(=O)n([C@H]2C[C@H](O)[C@@H](CO)O2)cc1F` [FUdR, fluorodeoxyuridine], the “enhancement of activity by 3-oxo-C12-HSL” value in the assay with H630 cells [6] (H630 cells) was “enhancement”.

As to `O=c1[nH]c(=O)n([C@@H]2O[C@H](CO)[C@@H](O)[C@H]2O)cc1F` [FUrd, 5-fluorouridine], the “enhancement of activity by 3-oxo-C12-HSL” value in the assay with H630 cells [6] (H630 cells) is reported as “no enhancement”.

Regarding `COc1cccc2c1C(=O)c1c(O)c3c(c(O)c1C2=O)C[C@@](O)(C(=O)CO)C[C@@H]3O[C@H]1C[C@H](N)[C@H](O)[C@H](C)O1` [adriamycin], the “enhancement of activity by 3-oxo-C12-HSL” value with H630 cells [6] (H630 cells) is “not”.

With `CN(Cc1cnc2nc(N)nc(N)c2n1)c1ccc(C(=O)N[C@@H](CCC(=O)O)C(=O)O)cc1` [methotrexate], in the assay with H630 cells [6] (H630 cells), the “enhancement of activity by 3-oxo-C12-HSL” value is listed as “not”.

Turning to `CC(=O)O[C@H]1C(=O)[C@@]2(C)[C@H]([C@H](OC(=O)c3ccccc3)[C@]3(O)C[C@H](OC(=O)[C@H](O)[C@@H](NC(=O)c4ccccc4)c4ccccc4)C(C)=C1C3(C)C)[C@]1(OC(C)=O)CO[C@@H]1C[C@@H]2O` [taxol], the IC50 in the assay on H630-1 cells [7] (Homo sapiens, FIG. 11E) was 0.02 µM; in the assay on H630 cells [6] (Homo sapiens, NCI-H630, read-out: IC50 colony formation), 0.006 µM. Moreover, the “enhancement of activity by 3-oxo-C12-HSL” value in the assay on H630-1 cells [7] and with H630 cells [6] (H630 cells) was “some enhancement” in each case.

`Cc1nc2ccc(CN(C)c3ccc(C(=O)N[C@@H](CCC(=O)O)C(=O)O)s3)cc2c(=O)[nH]1` [tomudex]: in the assay on H630 cells [6] (H630 cells), the “enhancement of activity by 3-oxo-C12-HSL” value is “enhancement”.
